Experiment [1] concerns β-cells. The experiment in a line: STZ oxidative-stress induced β-cell apoptosis, pancreas sections co-stained with TUNNEL and anti-insulin. It is filed as in vivo, C57Bl/6 mice. To be noted: for relative area of insulin+ cells to the total area of the islets: 48 hours after STZ (FIG. 10C); for STZ mediated oxidative-stress-induced apoptosis: 48 hours after STZ, N=4 mice/group (FIG. 10A). Here is the method:
C57Bl/6 mice received a moderate dose of STZ and then given plain water (control), water+GABA, or water+baclofen (a GABAB-R agonist). 48 hours later their pancreas were removed and sections co-stained with TUNNEL and anti-insulin.
N=4 mice/group, at least 100 islets analyzed per group.

In experiment [2] the test system is HFD-fed mice. The experiment in a line: GABA in drinking water of high fat diet (HFD) fed mice. It is filed as in vivo. The protocol:
Mice were fed high fat diet (HFD) or “western diet” causing them to gain weight, become obese, and develop glucose intolerance, insulin resistance, and metabolic syndrome. The mice were provided either normal water, or water that contained GABA (6 mg/ml). The weight, food intake, water intake, glucose tolerance, insulin sensitivity and blood glucose levels of the mice was monitored over 5 months.

For experiment [3], the system named is newly diabetic NOD mice. The experiment in a line: Reversal of hyperglycemia in newly diabetic NOD mice. It is filed as in vivo. To be noted: GABA 6 mgs/ml in drinking water, GAD/alum 100 μg sc on day 1 and 14 (FIG. 9). The protocol:
Mice were considered diabetic after two blood glucose>250 mgs/dL. […] Data shown are blood glucose levels in individual mice given no treatment (FIG. 9A), GABA alone (6 mgs/ml in drinking water) (FIG. 9B), or GABA+GAD/alum (100 μg sc on day 1 and 14) (FIG. 9C).

Experiment [4] has as its system syngenic islet grafts in diabetic NOD mice. Briefly: Syngenic islet graft survival in diabetic NOD mice. In kind it is in vivo. To be noted: diabetic NOD mice treated 28 days, then NOD.scid islets under kidney capsule; 10 week observation period (FIG. 8). The text has this: Mice were given insulin as needed. After 28 days the mice received NOD.scid islets under their kidney capsule and insulin treatment was discontinued. Data shown are individual mouse blood glucose levels post-transplantation (FIG. 8A-8D). […] Dashed line indicates blood glucose of 250 mgs/dL.

Experiment [5] concerns Treg responses. Briefly: In vitro culture system with IL-2 and anti-CD3. It is filed as cell-based. To be noted: preliminary data; IL-2 and anti-CD3 in an in vitro culture system. The source says: It is noted that the GABA treatment can both suppress autoimmune responses by working on GABA-A receptors on immune cells, and promote B-cell survival through their GABA-B receptors.

Turning to `NCC(CC(=O)O)c1ccc(Cl)cc1` (racemic) [baclofen, (RS)-4-amino-3-(4-chlorophenyl)butanoic acid, reference compound], the “relative area of insulin+ cells to the total area of the islets” value in experiment [1] was “greater β-cell area, but this did not reach the level of statistical significance”. In experiment [1] (baclofen in water), the “STZ mediated oxidative-stress-induced apoptosis” value was “significantly inhibits”.
In the case of `NCCCC(=O)O` [GABA, 4-aminobutanoic acid], the glucose tolerance result in experiment [2] (GABA 6 mg/ml in water (FIG. 3)) is listed as “improved”. Further, the insulin sensitivity result in experiment [2] (GABA 6 mg/ml in water (FIG. 4)) is listed as “improved”. For the same molecule, in experiment [2] (GABA 6 mg/ml in water (FIG. 5)), the “fasting blood glucose levels” value was “reduced”. Moreover, the “HFD-induced obesity (body weight)” value in experiment [2] (GABA 6 mg/ml in water (FIG. 6)) is reported as “mitigated”. For the same molecule, the “infiltration of macrophages into white adipose tissue” value in experiment [2] (GABA 6 mg/ml in water (FIG. 7, top panel)) is given as “inhibited”. The mass of adipocytes result in experiment [2] (GABA 6 mg/ml in water (FIG. 7 bottom panel)) is on record as “significantly reduced”. Further, the “insulin-expressing cells per 100 islet cells” value in experiment [1] (48 hours after STZ (FIG. 10B)) is “preserving insulin-expressing β-cell s”. Moreover, the “relative area of insulin+ cells to the total area of the islets” value in experiment [1] was “preserve the area of insulin producing β-cells”. For the same molecule, the “STZ mediated oxidative-stress-induced apoptosis” value in experiment [1] (GABA 2 mg/ml in water) and in experiment [1] (GABA 6 mgs/ml in water) was “significantly inhibits” each time. Besides, in experiment [3], the reversal of hyperglycemia entry is listed as “prolongs a state of modest hyperglycemia for a short period, after which the mice progress to severe hyperglycemia”. Moreover, the “time until mice became diabetic again after receiving the graft” value in experiment [4] is “about 3 weeks”. Further, the Treg responses result in experiment [5] is listed as “can promote Treg responses”.
As for “GAD/alum: glutamic acid decarboxylase (GAD) β-cell antigen vaccine given with alum adjuvant”, in experiment [3], the reversal of hyperglycemia entry is “cannot reverse hyperglycemia”. Besides, the “time until mice became diabetic again after receiving the graft” value in experiment [4] is listed as “about 3 weeks”.
Regarding “insulin B-chain: β-cell antigen used as antigen-based therapy”, in experiment [3], the reversal of hyperglycemia result is given as “cannot reverse hyperglycemia”.

The values above are taken from US11872200B2, “GABA agonists in the treatment of disorders associated with metabolic syndrome and GABA combinations in treatment or prophylaxis of type I diabetes” (The Regents of the University of California, priority 2010, dated 2024).
